Laboratory results published in patent US20240382432A1, “SINGLE CHAIN VARIABLE FRAGMENT (SCFV) MODIFIED LIPID NANOPARTICLE COMPOSITIONS AND USES THEREOF” (Generation Bio Co., priority 2021, published 2024).

Experiments:
HER2 receptor [1] = assay: HER2 scFv binding in cell-based assay (Alexa-fluor 488 labeled scFv); design: species or system human
Experimental: (§1) As proof of concept, HER2 scFv binding and internalization in cell-based assays in vitro was carried out.

HER2 receptor [2] = molecular target: T1, HER2 receptor (Homo sapiens, UniProt P04626); assay: HER2 scFv ligand internalization in cell-based assay (pHrhodo label)
T1 construct: endogenous in cells; host or cells: Sk-BR3, Sk-OV3 (HER2+); MCF7 (HER2-, negative control)
Experimental: as §1

HER2 receptor [3] = assay: as above; design: species or system human; conditions: MCF7 HER2- cell line; FIG. 1F
Experimental: as §1

trastuzumab-derived α-HER2 scFv: trastuzumab-derived single-chain variable fragment directed against HER2 (SEQ ID NO:1 core sequence)
HER2 receptor engagement (HER2 receptor [1]; MCF7 cells, do not express HER2 receptor (HER2-), FIG. 1C): not in MCF7 cells | HER2 receptor engagement (HER2 receptor [1]; Sk-BR3 HER2 expressing (HER2+) cell line, FIG. 1A): HER2 receptor engagement | HER2 receptor engagement (HER2 receptor [1]; Sk-OV3 HER2 expressing (HER2+) cell line, FIG. 1B): HER2 receptor engagement | ligand internalization (HER2 receptor [2]; Sk-BR3 cells (HER2+), FIG. 1D): showed ligand internalization | ligand internalization (HER2 receptor [2]; Sk-OV3 cells (HER2+), FIG. 1E): showed ligand internalization | ligand internalization (HER2 receptor [3]): did not
